Article PMC6273431, “The Structure–Antimicrobial Activity Relationships of a Promising Class of the Compounds Containing the N-Arylpiperazine Scaffold” (Molecules, 2016)
Read-outs that look alike come from different tables or passages of the source.

How the values were obtained:
[1] = test system: M. kansasii DSM 44162; experiment: antimycobacterial MIC, broth dilution micromethod; assay type: cell-based; conditions: Mycobacterium kansasii, DSM44162, 168 h, 7 days at 37 °C
[2] = test system: M. smegmatis ATCC 700084; experiment: antimycobacterial MIC, broth dilution micromethod; assay type: cell-based; conditions: Mycolicibacterium smegmatis, ATCC700084, 72 h, 3 days at 37 °C
[3] = test system: Mycobacterium avium subsp. paratuberculosis CIT03; experiment: antimycobacterial MIC, MB broth, alamarBlue; assay type: cell-based; conditions: 264 h, read-out: MIC MAP
Method: The Mycobacterium avium subsp. paratuberculosis CIT03 strain was grown in the Middlebrook (MB) broth, supplemented with the Oleic-Albumin-Dextrose-Catalase Supplement (OADC, Becton Dickinson, Oxford, UK) and the mycobactin J (2 μg/mL). The commercially available siderophore mycobactin J reduced the incubation period of M. avium subsp. paratuberculosis in a complex medium when compared to the medium containing the mycobactin P as a growth factor.
The identification of the isolate was performed using biochemical and molecular protocols. At a log phase growth, a culture sample (10 mL) was centrifuged at 15,000 rpm/20 min using a bench top centrifuge (Model CR 4-12, Jouan Inc., London, UK). Following removal of the supernatant, the pellet was washed in fresh Middlebrook 7H9GC broth and re-suspended in fresh supplemented MB broth (10 mL). The turbidity was adjusted to match the McFarland standard No. 1 containing approximately 3.0 × 10^8 Colony Forming Units (CFU) with the MB broth. Further 1:20 dilution of the culture was performed in the MB broth. The susceptibility of given mycobacterial species was investigated in a 96-well plate format. In those experiments, sterile deionised water (300 μL) was added to all outer-perimeter wells of the plates to minimize an evaporation of the medium in the test wells during the incubation process. Each evaluated compound (100 μL) was incubated with the mycobacterial species (100 μL). The dilutions of a particular compound were prepared in triplicate. For all inspected derivatives, final concentrations ranged from 1000 μg/mL to 60 μg/mL. All compounds were prepared in dimethyl sulfoxide (DMSO; Sigma-Aldrich, Irvine, UK) and subsequent dilutions were made in the supplemented MB broth. The plates were sealed with a parafilm and incubated at 37 °C for 11 days. Following the incubation, a 10% addition of a water‑soluble dye, the alamarBlue reagent (AbD Serotec, Kidlington, UK), was mixed into each well. Absorbance readings at 570 nm and 600 nm were taken, initially for background subtraction and after 24 h re-incubation. The subtraction is necessary for strongly coloured compounds, where the colour may interfere with the interpretation of any colour change. For non-interfering compounds, a blue colour in a well was interpreted as an absence of a growth and a pink colour was scored as a growth.
The minimum inhibitory concentration (MIC) was defined as the lowest concentration of the compound at which no visible bacterial growth was observed. In other words, the MIC was the lowest concentration that prevented a visual colour change from blue to pink. The MIC value has been routinely and widely used in bacterial assays and it has been a standard detection limit according to the Clinical and Laboratory Standards Institute. The clinically used antimycobacterial drugs INH and RIF were applied as the standards.

[4] = test system: Enterococcus faecalis ATCC 29212; experiment: antibacterial MIC, microtitration broth method; assay type: cell-based; conditions: 37 °C
Method: (§1) Prior to the testing, each strain was transferred into a nutrient agar (Oxoid Limited, Basingstoke, UK), which was enriched with 5% defibrinated bovine blood.
(§2) The MICs were determined by the microtitration broth method in the cation-adjusted Mueller-Hinton broth (Becton Dickinson, Oxford, UK) according to an international interdisciplinary Clinical Laboratory Standard Institute guidelines.
(§3) The checkerboard was inoculated by the bacterial inocula, which were prepared in a phosphate buffered saline solution with the pH = 7.2–7.3 to simulate physiological pH. The final concentration of each inoculum in the final volume of 100 μL in the wells was approximately 7.5 × 10^6 CFU/mL. Drug-free controls, sterility controls and the controls consisted of the broth with DMSO were included. The determination of the results was performed visually after 24 h of static incubation in the darkness at 37 °C in an aerobic atmosphere.
(§4) To ensure reproducibility, each antibacterial MIC assay was performed triplicate on separate occasions.

[5] = test system: methicillin-resistant Staphylococcus aureus 63718; experiment: antibacterial MIC, microtitration broth method; assay type: cell-based; conditions: MRSA, 37 °C
Method: as §1, §2, §3, §4

[6] = test system: Escherichia coli ATCC 25922; experiment: antibacterial MIC, microtitration broth method; assay type: cell-based; conditions: 37 °C
Method: as §1, §2, §3, §4

[7] = test system: Staphylococcus aureus ATCC 29213; experiment: antibacterial MIC, microtitration broth method; assay type: cell-based; conditions: 37 °C
Method: as §1, §2, §3, §4

[8] = parameters: method as in PMID 16209439, PMID 16209439; conditions: potentiometric titration; cited from earlier work
[9] = test system: Candida parapsilosis CCM 8260; experiment: candidacidal MIC, microdilution method; assay type: cell-based; conditions: Lodderomyces parapsilosis, CCM8260, 48 h, 37 °C
Method: (§5) In order to provide a look into the potential usefulness of the derivatives 5a–l as the candidates for a development of anti-yeast (candidacidal) agents, they were in vitro tested against Candida albicans CCM 8261 (CA 8261), C. krusei CCM 8271 (CK 8271) and C. parapsilosis CCM 8260 (CP 8260). The yeasts were obtained from the Czech Collection of Microorganisms (Masaryk University, Faculty of Science, Brno, Czech Republic). They were grown and kept on Sabouraud agar (Oxoid Limited, Basingstoke, UK).
(§6) For the screening, the microdilution method according to the Antimicrobial Susceptibility Testing Protocols was applied. The inoculum was prepared from the cultures grown on Sabouraud agar. With the sterile solution of NaCl, the inoculum was prepared to the 0.5 McFarland units using the Densi-La-Meter densitometer (LIAP, Riga, Latvia) and diluted a thousand‑fold with the Roswell Park Memorial Institute (RPMI) 1640 medium (Sigma-Aldrich, Darmstadt, Germany). Prepared suspension was used for an inoculation of microtitre plates. Final concentration in wells ranged from 5.0 × 10^2 CFU/mL to 2.5 × 10^3 CFU/mL. […] For the determination of the MICs, the stock solutions of all the tested compounds were diluted in the microtitre checkerboard to the final concentration varying from 128 μg/mL to 0.125 μg/mL. Drug-free control, sterility control and the control consisted of a medium and DMSO alone were included. Inoculated microtitre plates were incubated for 48 h in the darkness at 37 °C in an aerobic atmosphere. The results were estimated against static light.
(§7) The MIC was defined as the lowest concentration of the tested compound at which no visible growth was observed. To ensure reproducibility of the results, each candidacidal MIC assay was performed triplicate on separate occasions. It was important to note that all the MICs from the in vitro antimicrobial screening were expressed in μg/mL units and were available in Tables S3 and S4 (Supplementary Materials).

[10] = test system: Candida albicans CCM 8261; experiment: candidacidal MIC, microdilution method; assay type: cell-based; conditions: Candida albicans, CCM8261, 48 h, 37 °C
Method: as §5, §6, §7

[11] = test system: Candida krusei CCM 8271; experiment: candidacidal MIC, microdilution method; assay type: cell-based; conditions: Pichia kudriavzevii, CCM8271, 48 h, 37 °C
Method: as §5, §6, §7

[12] = parameters: method as in PMID 16209439, PMID 16209439, doi:10.2478/s11696-006-0007-y; conditions: octan-1-ol/phosphate buffer (pH = 7.4); cited from earlier work
[13] = test system: M. marinum CAMP 5644; experiment: antimycobacterial MIC, broth dilution micromethod; assay type: cell-based; conditions: Mycobacterium marinum, CAMP5644, 504 h, 21 days at 28 °C

Structure (SMILES) | MIC [1] [µM] | MIC ([1]; Table S3) [µg/mL] | MIC [2] [µM] | MIC ([2]; Table S3) [µg/mL] | MIC ([3]; 37 °C, 11 days) [µM] | MIC [3] [µg/mL] | MIC ([4]; ATCC29212, 24 h) [µM] | MIC ([4]; ATCC29212, Table S4, 24 h) [µg/mL] | MIC ([5]; 24 h) [µM] | MIC ([5]; Table S4, 24 h) [µg/mL] | MIC ([6]; ATCC25922, 24 h) [µM] | MIC ([6]; ATCC25922, Table S4, 24 h) [µg/mL] | MIC ([7]; ATCC29213, 24 h) [µM] | MIC ([7]; ATCC29213, Table S4, 24 h) [µg/mL] | pKa [8] | MIC [9] [µM] | MIC ([9]; Table S4) [µg/mL] | MIC [10] [µM] | MIC ([10]; Table S4) [µg/mL] | MIC [11] [µM] | further results
CCOc1cccc(NC(=O)OCC(O)CN2CCN(c3cccc(C(F)(F)F)c3)CC2)c1.Cl (stereo not drawn) [Compound 5d, 1-[3-(3-ethoxyphenylcarbamoyl)oxy-2-hydroxypropyl]-4-(3-trifluoromethylphenyl)piperazin-1-ium chloride] | 31.8 | 16 | 127 | 64 | 1980 | 1000 | > 508 | > 256 | > 508 | > 256 | > 508 | > 256 | > 508 | > 256 | 5.35 | > 254 | > 128 | > 254 | > 128 | > 254 | MIC ([11]; Table S4): > 128 µg/mL; log Pexp [12]: 3.72; MIC [13]: 127 µM; MIC ([13]; Table S3): 64 µg/mL
COc1ccc(NC(=O)OCC(O)CN2CCN(c3cccc(C(F)(F)F)c3)CC2)cc1 (stereo not drawn) [Compound 5e, 1-{2-hydroxy-3-(4-methoxyphenylcarbamoyl)oxy)propyl}-4-(3-trifluoromethylphenyl)piperazin-1-ium chloride] | 65.3 | 32 | 523 | 256 | 1020 | 500 | > 523 | > 256 | > 523 | > 256 | > 523 | > 256 | > 523 | > 256 | 5.66 | > 261 | > 128 | > 261 | > 128 | > 261 | MIC ([11]; Table S4): > 128 µg/mL; log Pexp [12]: 3.60; MIC [13]: 65.3 µM; MIC ([13]; Table S3): 32 µg/mL
